# From US11560388B2, “Anthelmintic aza-benzothiophene and aza-benzofuran compounds” (Boehringer Ingelheim Vetmedica GmbH, priority 2019, dated 2023)
# Experiments:
# [1] = tested on: L1 Haemonchus contortus larvae; assay: Screening of activity against Haemonchus contortus (larval development L1 to L3, dose response); assay type: cell-based; conditions: 96 h, read-out: EC50 (development of the larvae from L1 to L3)
# Dirofilaria immitis = assay: In vivo efficacy against Dirofilaria immitis in immunodeficient NSG mice; conditions: vs control group
# Haemonchus contortus = assay: In vivo efficacy against Haemonchus contortus in Mongolian jird (Meriones unguiculatus)
# [2] = tested on: Trichostrongylus colubriformis; assay: In vivo efficacy against Trichostrongylus colubriformis in Mongolian jird (Meriones unguiculatus)
# [3] = tested on: microfilariae of Dirofilaria immitis; assay: Screening of activity against microfilaria of Dirofilaria immitis (motility, dose response); assay type: cell-based; conditions: 72 h, read-out: EC50 (motility of the microfilaria)
# [4] = Study #2, NSG mice, 25 mg/kg oral
# [5] = Study #2, NSG mice, 50 mg/kg oral
# [6] = Study 3, jird, 25 mg/kg oral gavage
# [7] = Study 4, jird, 5 mg/kg oral gavage
# [8] = Study #3, NSG mice, 25 mg/kg oral
# [9] = Study 4, jird, 25 mg/kg oral gavage
# [10] = Study 2, jird, 25 mg/kg oral gavage
# [11] = Study 1, jird, 25 mg/kg oral gavage, necropsy 3 days after treatment
# [12] = Study 1, jird, 10 mg/kg, positive control
# [13] = Study 2, jird, 10 mg/kg, positive control
# [14] = Study 3, jird, 10 mg/kg, positive control
# [15] = Study 4, jird, 10 mg/kg, positive control
compound,measurement,setting,value
O=C(N[C@H]1CCOc2ccccc21)c1sc2c(-c3cc(F)cc(F)c3)cccc2c1C1=CCOCC1 [Compound 102-1],EC50,[1],100 to 10000 nM
C=C(C)c1c(C(=O)N[C@H]2CCOc3ccccc32)sc2c(-c3cc(F)cc(F)c3)ccnc12 [Compound 119],EC50,[1],100 to 10000 nM
same,% Reduction worms,Dirofilaria immitis; [4],67%
same,% Reduction worms,Dirofilaria immitis; [5],37%
CC(C)c1c(C(=O)N[C@H]2CCOc3ccccc32)sc2c(-c3cc(F)cc(F)c3)ccnc12 [Compound 120],% Reduction worms,Dirofilaria immitis; [4],47%
same,% Reduction worms,Dirofilaria immitis; [5],33%
"Cc1cc(F)cc(C)c1-c1ccnc2c(C(C)C)c(C(=O)N[C@H]3CCOc4ccccc43)sc12 [Compound 201, N-[(4S)-3,4-dihydro-2H-1-benzopyran-4-yl]-7-(4-fluoro-2,6-dimethylphenyl)-3-isopropylthieno[3,2-b]pyridine-2-carboxamide]",EC50,[1],100 to 10000 nM
CC(C)c1c(C(=O)N[C@H]2CCOc3ccccc32)sc2c(-c3cc(F)cc(F)c3)c(F)cnc12 [Compound 204],% Reduction H. contortus,Haemonchus contortus; [6],100.0%
same,% Reduction H. contortus,Haemonchus contortus; [7],50.1%
same,% Reduction worms,"Dirofilaria immitis; Study #1, NSG mice, 50 mg/kg oral at Days 1, 15, 30 post-infection",65%
same,% Reduction T. columbriformis,[2]; [6],100.0%
same,% Reduction T. columbriformis,[2]; [7],22.2%
O=C(N[C@H]1CCOc2ccccc21)c1sc2c(-c3cc(F)cc(F)c3)ccnc2c1C(F)F [Compound 205],EC50,[3],100 to 10000 nM
same,EC50,[1],100 to 10000 nM
CC(C)c1c(C(=O)N[C@H]2CCOc3ccccc32)sc2c(-c3cccc(F)c3)ccnc12 [Compound 207],% Reduction worms,Dirofilaria immitis; [8],55%
CC(C)(C)c1c(C(=O)N[C@H]2CCOc3ccccc32)sc2c(-c3cc(F)cc(F)c3)ccnc12 [Compound 210],% Reduction H. contortus,Haemonchus contortus; [6],100.0%
same,% Reduction worms,Dirofilaria immitis; [8],55%
same,% Reduction T. columbriformis,[2]; [6],100.0%
CC(C)c1c(C(=O)N[C@H]2CCOc3ccc(F)cc32)sc2c(-c3cc(Cl)cc(Cl)c3)ccnc12 [Compound 211],% Reduction H. contortus,Haemonchus contortus; [6],100.0%
same,% Reduction worms,"Dirofilaria immitis; Study #1, NSG mice, 25 mg/kg oral at Days 1, 15, 30 post-infection",61%
same,% Reduction T. columbriformis,[2]; [6],100.0%
CC(C)(F)c1c(C(=O)N[C@H]2CCOc3ccccc32)sc2c(-c3cc(Cl)cc(Cl)c3)ccnc12 [Compound 212],% Reduction worms,"Dirofilaria immitis; Study #1, NSG mice, 23 mg/kg (table) oral at Days 1, 15, 30 post-infection",13%
C[C@@H]1C[C@H](C)CN(c2ccnc3c(N4CCOCC4)c(C(=O)N[C@H]4CCOc5ccccc54)sc23)C1 [Compound 217],EC50,[3],100 to 10000 nM
CC(C)c1c(C(=O)N[C@H]2CCOc3ccccc32)sc2c(C3CCCCC3)ccnc12 [Compound 223],EC50,[3],< 10 nM
same,EC50,[1],100 to 10000 nM
O=C(N[C@H]1CCOc2ccccc21)c1sc2c(-c3cc(F)cc(F)c3)ccnc2c1C(F)(F)C(F)(F)F [Compound 238],EC50,[3],< 10 nM
same,EC50,[1],100 to 10000 nM
C=C(C)c1c(C(=O)N[C@H]2CCOc3ccccc32)sc2c(-c3cc(F)cc(F)c3)cnnc12 [Compound 239-INT-1],EC50,[1],100 to 10000 nM
"CC(C)c1c(C(=O)N[C@H]2CCOc3ccccc32)sc2c(C3(F)CCCCC3)ccnc12 [Compound 255, N-[(4S)-3,4-dihydro-2H-1-benzopyran-4-yl]-7-(1-fluorocyclohexyl)-3-isopropylthieno[3,2-b]pyridine-2-carboxamide]",EC50,[1],100 to 10000 nM
CC(C)c1c(C(=O)N[C@H]2CCOc3ccc(F)cc32)sc2c(-c3cc(F)cc(F)c3)ccnc12 [Compound 257],% Reduction worms,Dirofilaria immitis; [8],45%
CC(=O)c1c(C(=O)N[C@H]2CCOc3ccc(F)cc32)sc2c(-c3cc(Cl)cc(Cl)c3)ccnc12 [Compound 259-4],EC50,[3],100 to 10000 nM
CC(C)(F)c1c(C(=O)N[C@H]2CCOc3ccc(F)cc32)sc2c(-c3cc(Cl)cc(Cl)c3)ccnc12 [Compound 259],% Reduction H. contortus,Haemonchus contortus; [9],100.0%
same,% Reduction T. columbriformis,[2]; [9],99.5%
CC(C)c1c(C(=O)N[C@H]2CCOc3ccc(F)cc32)sc2c(-c3cc(F)cc(F)c3)c(F)cnc12 [Compound 260],% Reduction H. contortus,Haemonchus contortus; [9],23.5%
same,% Reduction T. columbriformis,[2]; [9],45.8%
CC(C)(O)c1c(C(=O)N[C@H]2CCOc3ccccc32)sc2c(-c3cc(Cl)cc(Cl)c3)c(F)cnc12 [Compound 263-8],EC50,[3],< 10 nM
same,EC50,[1],< 100 nM
same,% Reduction H. contortus,Haemonchus contortus; [10],99.8%
same,% Reduction H. contortus,Haemonchus contortus; [7],99.8%
same,% Reduction T. columbriformis,[2]; [10],100.0%
same,% Reduction T. columbriformis,[2]; [7],99.9%
CC(C)(F)c1c(C(=O)N[C@H]2CCOc3ccccc32)sc2c(-c3cc(Cl)cc(Cl)c3)c(F)cnc12 [Compound 263],% Reduction H. contortus,Haemonchus contortus; [11],100.0%
same,% Reduction T. columbriformis,[2]; [11],100.0%
"CC(C)(F)c1c(C(=O)N[C@H]2CCOc3ccccc32)sc2c(-c3cc(Cl)cc(Cl)c3)cncc12 [Compound 264, 7-(3,5-dichlorophenyl)-N-[(4S)-3,4-dihydro-2H-1-benzopyran-4-yl]-3-(2-fluoropropan-2-yl)thieno[3,2-c]pyridine-2-carboxamide]",EC50,[3],< 10 nM
same,EC50,[1],< 100 nM
"CC(C)(O)c1c(C(=O)N[C@H]2CCOc3ccccc32)sc2c(-c3cc(Cl)cc(Cl)c3)cncc12 [Compound 264-0, 7-(3,5-dichlorophenyl)-N-[(4S)-3,4-dihydro-2H-1-benzopyran-4-yl]-3-(2-hydroxypropan-2-yl)thieno[3,2-c]pyridine-2-carboxamide]",EC50,[1],< 100 nM
CC(C)(O)c1c(C(=O)N[C@H]2CCOc3ccccc32)sc2c(-c3ccnc(Cl)c3)ccnc12 [Compound 268-4],EC50,[1],100 to 10000 nM
C=C(C)c1c(C(=O)N[C@H]2CCOc3ccccc32)sc2c(-c3cc(Cl)cc(Cl)c3)ccnc12 [Compound 285],% Reduction H. contortus,Haemonchus contortus; [11],100.0%
same,% Reduction T. columbriformis,[2]; [11],100.0%
CC(C)c1c(C(=O)N[C@H]2CCOc3ccccc32)sc2c(-c3cc(F)cc(F)c3)c(Cl)cnc12 [Compound 310],EC50,[3],100 to 10000 nM
same,EC50,[1],< 100 nM
"c1ccc([C@H]2CN3CCSC3=N2)cc1 [Levamisole, levamisole, reference compound]",% Reduction H. contortus,Haemonchus contortus; [12],98.4%
same,% Reduction H. contortus,Haemonchus contortus; [13],100.0%
same,% Reduction H. contortus,Haemonchus contortus; [14],100.0%
same,% Reduction H. contortus,Haemonchus contortus; [15],99.8%
same,% Reduction T. columbriformis,[2]; [12],89.1%
same,% Reduction T. columbriformis,[2]; [13],96.4%
same,% Reduction T. columbriformis,[2]; [14],100.0%
same,% Reduction T. columbriformis,[2]; [15],72.2%
